The target in this test is Dihydroorotate dehydrogenase (quinone), mitochondrial (Homo sapiens, UniProt Q02127). Kind of test: Inhibition of human dihydroorotate dehydrogenase.
Dihydroorotate dehydrogenase (quinone), mitochondrial, sequence (Q02127 whole entry): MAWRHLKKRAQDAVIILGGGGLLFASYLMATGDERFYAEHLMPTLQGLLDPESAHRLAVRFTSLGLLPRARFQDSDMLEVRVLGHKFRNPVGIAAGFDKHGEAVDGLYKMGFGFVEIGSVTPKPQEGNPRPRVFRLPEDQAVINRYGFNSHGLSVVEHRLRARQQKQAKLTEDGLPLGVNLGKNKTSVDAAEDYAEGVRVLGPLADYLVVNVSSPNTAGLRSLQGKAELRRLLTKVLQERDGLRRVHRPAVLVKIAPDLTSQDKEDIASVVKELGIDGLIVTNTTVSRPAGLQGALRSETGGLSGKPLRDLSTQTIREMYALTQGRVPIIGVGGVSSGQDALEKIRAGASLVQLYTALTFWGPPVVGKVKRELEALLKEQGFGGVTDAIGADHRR
Regarding `CCC(=O)C(C#N)C(=O)Nc1ccc(-c2ccc(F)cc2F)c(C(=O)OC)c1` (configuration not stated), the 50% inhibitory concentration (IC50) (in general, the concentration at which inhibition is half-maximal) was 31 nM. The value for `CCC(=O)C(C#N)C(=O)Nc1ccc(OS(=O)(=O)C(F)(F)F)cc1` (configuration not stated) was 150 nM; that for `CCC(=O)C(C#N)C(=O)Nc1ccc(-c2ccc(F)cc2OC)c(C(=O)OC)c1` (configuration not stated) was 66 nM. Then `CCC(=O)C(C#N)C(=O)Nc1ccc(-c2ccc3c(c2)OCCO3)c(C(=O)OC)c1` (configuration not stated), with 66 nM; and `CCC(=O)C(C#N)C(=O)Nc1ccc(-c2cccc(Cl)c2)c(C(=O)OC)c1` (configuration not stated), with 31 nM; and `CCC(=O)C(C#N)C(=O)Nc1ccc(-c2cccc(OC3CCC3)c2)c(C(=O)OC)c1` (configuration not stated), with 31 nM. The value for `CCC(=O)C(C#N)C(=O)Nc1ccc(-c2ccc(F)nc2)c(C(=O)OC)c1` (configuration not stated) was 150 nM.

For the origin of these results see BindingDB's records for doi:10.1016/j.bmcl.2011.10.052 (Rhône-Poulenc Rorer, 2011).
